Experimental data reported in ChEMBL document CHEMBL5665443, “Enzyme Inhibitor Single Concentration assay results for EUbOPEN Chemogenomics Library” (2024).

Assays:
[1] = target: Uracil-DNA glycosylase (Homo sapiens) (UniProt P13051); details: Compound Concentration 10.0 uM, Hit No;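 note: UNG excision on a quenched double-stranded DNA oligo probe, with APE1 added for strand incision and turnover, read as fluorescence at 594 nm as strands separate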
Description: Inhibition of UNG by quantifying inhibition of UNG-mediated cleavage and dissociation of quenched duplex DNA oligonucleotides, measured as fluorescence at 594 nm. To generate a functional strand incision and increase turn-over this assay is coupled to APE1.

[2] = target: T1, Endonuclease 8-like 2 (Homo sapiens) (UniProt Q969S2); details: Compound Concentration 10.0 uM;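 note: fluorescence at 594 nm reports NEIL2 cutting and release of a quenched double-stranded DNA oligo substrate, reduced signal read as inhibition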
T1 sequence (whole entry): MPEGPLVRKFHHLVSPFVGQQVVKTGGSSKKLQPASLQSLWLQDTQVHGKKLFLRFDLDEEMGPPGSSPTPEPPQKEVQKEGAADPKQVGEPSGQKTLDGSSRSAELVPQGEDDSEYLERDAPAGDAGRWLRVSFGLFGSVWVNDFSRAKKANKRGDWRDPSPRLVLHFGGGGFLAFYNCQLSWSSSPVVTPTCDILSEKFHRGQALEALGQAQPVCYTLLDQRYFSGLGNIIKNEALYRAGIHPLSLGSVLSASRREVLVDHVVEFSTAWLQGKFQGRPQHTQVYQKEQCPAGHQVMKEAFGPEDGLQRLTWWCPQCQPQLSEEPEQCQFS
Description: Inhibition of NEIL2 by quantifying inhibition of NEIL2-mediated cleavage and dissociation of quenched duplex DNA oligonucleotides, measured as fluorescence at 594 nm.

[3] = target: T2, Adenine DNA glycosylase (Homo sapiens) (UniProt Q9UIF7); details: Compound Concentration 10.0 uM, Hit No;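 note: human MUTYH activity read as 594 nm fluorescence from cleavage and release of a quenched DNA duplex, coupled with APE1 for strand incision, lower signal meaning inhibition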
T2 sequence (whole entry): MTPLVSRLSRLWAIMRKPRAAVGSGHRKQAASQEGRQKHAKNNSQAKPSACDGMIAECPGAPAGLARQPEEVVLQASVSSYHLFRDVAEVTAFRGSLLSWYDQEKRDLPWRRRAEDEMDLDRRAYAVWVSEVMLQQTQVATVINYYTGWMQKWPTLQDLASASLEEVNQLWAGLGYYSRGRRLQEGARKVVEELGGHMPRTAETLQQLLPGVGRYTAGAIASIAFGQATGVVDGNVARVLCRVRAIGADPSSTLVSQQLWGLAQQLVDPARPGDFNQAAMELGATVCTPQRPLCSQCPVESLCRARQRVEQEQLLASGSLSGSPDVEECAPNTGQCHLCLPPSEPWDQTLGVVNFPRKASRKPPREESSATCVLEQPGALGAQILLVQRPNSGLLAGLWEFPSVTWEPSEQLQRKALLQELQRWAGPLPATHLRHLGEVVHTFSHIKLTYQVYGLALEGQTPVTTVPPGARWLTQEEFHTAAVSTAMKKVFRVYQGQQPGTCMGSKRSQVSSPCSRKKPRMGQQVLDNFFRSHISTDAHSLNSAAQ
Description: Inhibition of MUTYH by quantifying inhibition of MUTYH-mediated cleavage and dissociation of quenched duplex DNA oligonucleotides, measured as fluorescence at 594 nm. To generate a functional strand incision and increase turn-over this assay is coupled to APE1.

[4] = target: T3, Single-strand selective monofunctional uracil DNA glycosylase (Homo sapiens) (UniProt Q53HV7); details: Compound Concentration 10.0 uM, Hit No;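 note: enzymatic SMUG1 assay coupled with APE1, reading fluorescence at 594 nm released when a quenched double-stranded DNA oligonucleotide substrate is cleaved and separated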
T3 sequence (whole entry): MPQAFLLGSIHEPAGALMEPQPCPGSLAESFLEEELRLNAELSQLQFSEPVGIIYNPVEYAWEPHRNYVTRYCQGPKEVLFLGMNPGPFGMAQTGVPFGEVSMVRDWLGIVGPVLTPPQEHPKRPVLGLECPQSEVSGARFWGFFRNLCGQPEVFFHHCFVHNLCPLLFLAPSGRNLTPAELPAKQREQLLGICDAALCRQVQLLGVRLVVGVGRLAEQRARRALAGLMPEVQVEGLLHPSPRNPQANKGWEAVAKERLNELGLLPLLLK
Description: Inhibition of SMUG1 by quantifying inhibition of SMUG1-mediated cleavage and dissociation of quenched duplex DNA oligonucleotides, measured as fluorescence at 594 nm. To generate a functional strand incision and increase turn-over this assay is coupled to APE1.

[5] = target: N-glycosylase/DNA lyase (Homo sapiens) (UniProt O15527); details: Compound Concentration 10.0 uM, Hit No;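 note: OGG1 cleavage of a quenched duplex DNA oligonucleotide, coupled to APE1 for strand incision, read as fluorescence at 594 nm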
N-glycosylase/DNA lyase (Homo sapiens), sequence (O15527 whole entry, the tested form may be a part): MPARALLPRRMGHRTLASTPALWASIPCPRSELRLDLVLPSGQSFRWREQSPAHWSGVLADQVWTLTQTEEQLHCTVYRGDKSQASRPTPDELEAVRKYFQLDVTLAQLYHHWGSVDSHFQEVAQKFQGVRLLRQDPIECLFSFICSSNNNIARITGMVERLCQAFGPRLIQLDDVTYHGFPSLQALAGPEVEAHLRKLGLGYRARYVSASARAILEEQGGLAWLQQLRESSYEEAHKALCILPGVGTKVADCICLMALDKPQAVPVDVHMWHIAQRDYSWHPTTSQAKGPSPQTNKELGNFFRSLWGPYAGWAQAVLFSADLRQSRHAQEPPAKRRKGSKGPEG
Description: Inhibition of OGG1 by quantifying inhibition of OGG1-mediated cleavage and dissociation of quenched duplex DNA oligonucleotides, measured as fluorescence at 594 nm. To generate a functional strand incision and increase turn-over this assay is coupled to APE1.

[6] = target: Methyl-CpG-binding domain protein 4 (Homo sapiens) (UniProt O95243); details: Compound Concentration 10.0 uM, Hit No;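 note: MBD4 activity read as fluorescence at 594 nm from cleavage and release of a quenched duplex DNA oligonucleotide, with APE1 coupled to incise the strand and raise turnover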
Methyl-CpG-binding domain protein 4 (Homo sapiens), sequence (O95243 whole entry, the tested form may be a part): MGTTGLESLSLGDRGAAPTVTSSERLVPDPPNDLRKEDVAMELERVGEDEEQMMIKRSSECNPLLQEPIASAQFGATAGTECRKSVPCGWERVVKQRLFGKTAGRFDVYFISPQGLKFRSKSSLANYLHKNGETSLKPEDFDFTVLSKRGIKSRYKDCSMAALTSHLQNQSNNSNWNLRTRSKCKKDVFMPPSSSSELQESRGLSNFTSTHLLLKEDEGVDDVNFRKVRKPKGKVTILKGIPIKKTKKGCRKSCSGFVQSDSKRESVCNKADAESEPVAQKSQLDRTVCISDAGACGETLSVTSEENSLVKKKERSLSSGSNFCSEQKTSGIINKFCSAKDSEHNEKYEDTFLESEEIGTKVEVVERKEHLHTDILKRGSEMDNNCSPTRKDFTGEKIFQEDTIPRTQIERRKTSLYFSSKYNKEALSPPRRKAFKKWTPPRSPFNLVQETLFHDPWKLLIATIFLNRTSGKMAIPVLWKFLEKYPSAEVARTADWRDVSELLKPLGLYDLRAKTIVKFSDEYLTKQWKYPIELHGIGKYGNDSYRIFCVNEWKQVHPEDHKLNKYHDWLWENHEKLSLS
Description: Inhibition of MBD4 by quantifying inhibition of MBD4-mediated cleavage and dissociation of quenched duplex DNA oligonucleotides, measured as fluorescence at 594 nm. To generate a functional strand incision and increase turn-over this assay is coupled to APE1.

[7] = target: Endonuclease 8-like 1 (Homo sapiens) (UniProt Q96FI4); details: Compound Concentration 10.0 uM, Hit No;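 note: fluorescence at 594 nm from quenched duplex DNA oligonucleotides released by NEIL1 cleavage and strand separation, reported as reduction of this enzyme activity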
Endonuclease 8-like 1 (Homo sapiens), sequence (Q96FI4 whole entry): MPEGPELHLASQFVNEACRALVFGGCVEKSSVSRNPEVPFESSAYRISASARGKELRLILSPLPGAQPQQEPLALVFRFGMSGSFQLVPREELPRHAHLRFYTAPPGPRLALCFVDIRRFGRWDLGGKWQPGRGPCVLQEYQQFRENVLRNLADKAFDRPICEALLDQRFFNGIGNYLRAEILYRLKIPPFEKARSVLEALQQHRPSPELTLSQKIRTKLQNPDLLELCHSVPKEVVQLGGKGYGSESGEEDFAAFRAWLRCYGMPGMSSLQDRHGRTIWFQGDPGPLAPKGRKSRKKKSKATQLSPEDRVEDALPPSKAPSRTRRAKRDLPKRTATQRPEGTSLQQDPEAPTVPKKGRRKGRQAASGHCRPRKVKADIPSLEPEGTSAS
Description: Inhibition of NEIL1 by quantifying inhibition of NEIL1-mediated cleavage and dissociation of quenched duplex DNA oligonucleotides, measured as fluorescence at 594 nm.

[8] = target: T4, Endonuclease III-like protein 1 (Homo sapiens) (UniProt P78549); details: Compound Concentration 10.0 uM, Hit No;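 note: enzyme assay tracking NTHL1 cutting and release of a quenched double-stranded DNA oligo substrate, read as fluorescence at 594 nm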
T4 sequence (whole entry): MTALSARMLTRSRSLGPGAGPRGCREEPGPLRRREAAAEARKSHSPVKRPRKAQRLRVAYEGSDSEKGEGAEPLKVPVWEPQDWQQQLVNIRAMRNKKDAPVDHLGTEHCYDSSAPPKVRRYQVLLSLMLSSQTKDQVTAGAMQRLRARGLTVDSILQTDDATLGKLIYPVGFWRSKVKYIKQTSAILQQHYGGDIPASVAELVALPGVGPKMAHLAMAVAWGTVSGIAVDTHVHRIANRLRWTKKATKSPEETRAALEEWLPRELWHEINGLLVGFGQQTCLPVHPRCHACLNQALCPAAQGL
Description: Inhibition of NTHL1 by quantifying inhibition of NTHL1-mediated cleavage and dissociation of quenched duplex DNA oligonucleotides, measured as fluorescence at 594 nm.

[9] = target: G/T mismatch-specific thymine DNA glycosylase (Homo sapiens) (UniProt Q13569); details: Compound Concentration 10.0 uM, Hit No;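 note: human TDG cleavage of quenched duplex DNA oligonucleotides coupled to APE1, strand release read as fluorescence at 594 nm, inhibition of TDG activity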
G/T mismatch-specific thymine DNA glycosylase (Homo sapiens), sequence (Q13569 whole entry): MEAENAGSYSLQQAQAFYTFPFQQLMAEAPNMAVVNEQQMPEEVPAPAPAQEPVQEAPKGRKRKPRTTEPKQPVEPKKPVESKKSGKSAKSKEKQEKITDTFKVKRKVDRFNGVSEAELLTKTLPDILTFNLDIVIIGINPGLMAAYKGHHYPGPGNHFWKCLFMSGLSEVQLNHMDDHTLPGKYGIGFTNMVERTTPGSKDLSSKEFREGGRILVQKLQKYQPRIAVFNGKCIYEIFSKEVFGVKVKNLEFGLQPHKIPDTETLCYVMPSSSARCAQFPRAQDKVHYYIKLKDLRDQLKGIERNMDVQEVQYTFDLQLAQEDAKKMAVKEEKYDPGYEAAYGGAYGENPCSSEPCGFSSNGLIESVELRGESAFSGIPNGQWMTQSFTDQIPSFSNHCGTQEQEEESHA
Description: Inhibition of TDG by quantifying inhibition of TDG-mediated cleavage and dissociation of quenched duplex DNA oligonucleotides, measured as fluorescence at 594 nm. To generate a functional strand incision and increase turn-over this assay is coupled to APE1.

[10] = target: DNA-3-methyladenine glycosylase (Homo sapiens) (UniProt P29372); details: Compound Concentration 10.0 uM, Hit No;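 note: enzyme assay where MPG cuts a quenched duplex DNA oligonucleotide probe, paired with APE1 for strand incision and turnover, read as fluorescence at 594 nm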
DNA-3-methyladenine glycosylase (Homo sapiens), sequence (P29372 whole entry): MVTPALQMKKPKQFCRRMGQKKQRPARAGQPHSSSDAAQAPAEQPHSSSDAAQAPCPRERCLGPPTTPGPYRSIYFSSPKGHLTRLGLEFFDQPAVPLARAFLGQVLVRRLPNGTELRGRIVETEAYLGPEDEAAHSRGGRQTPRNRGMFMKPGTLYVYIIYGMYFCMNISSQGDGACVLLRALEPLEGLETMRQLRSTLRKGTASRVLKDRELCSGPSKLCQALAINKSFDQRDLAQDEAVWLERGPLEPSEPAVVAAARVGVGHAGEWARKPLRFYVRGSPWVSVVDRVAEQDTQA
Description: Inhibition of MPG by quantifying inhibition of MPG-mediated cleavage and dissociation of quenched duplex DNA oligonucleotides, measured as fluorescence at 594 nm. To generate a functional strand incision and increase turn-over this assay is coupled to APE1.

Uracil-DNA glycosylase (Homo sapiens), sequence (P13051 whole entry): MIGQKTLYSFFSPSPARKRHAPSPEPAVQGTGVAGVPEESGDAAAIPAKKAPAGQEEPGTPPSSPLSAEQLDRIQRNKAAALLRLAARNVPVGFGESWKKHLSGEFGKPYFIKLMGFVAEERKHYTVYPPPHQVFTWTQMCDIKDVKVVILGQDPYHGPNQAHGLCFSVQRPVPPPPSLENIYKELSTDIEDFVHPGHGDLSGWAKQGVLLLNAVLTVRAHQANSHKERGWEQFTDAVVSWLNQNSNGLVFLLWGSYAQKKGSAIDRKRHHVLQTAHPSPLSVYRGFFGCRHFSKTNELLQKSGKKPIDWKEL

Structure (SMILES)	inhibition [1]	inhibition ([2]; Hit No)	inhibition [3]	inhibition [4]	inhibition [5]	inhibition [6]	inhibition [7]	inhibition [8]	inhibition [9]	inhibition [10]	inhibition ([2]; Hit Yes)
N/C(=N\C(=O)c1nc(Cl)c(N)nc1N)NCc1ccccc1	4.68%	15.2%	36.7%	7.5%	16.3%	41.7%	9.94%	15.4%	32.7%	25.3%	
Cc1cc(C)c(N)c(C#Cc2cccc(F)c2)n1	-6.05%	5.26%	4.63%	6.75%	4.23%	6.71%	0.982%	-3.21%	17.2%	3.92%	
COc1ccc(OC)c(-c2ccc(NC(=O)c3ccncc3F)cc2)c1	2.08%	-1.37%	-1.87%	24.3%	1.6%	23.8%	3.57%	-0.258%	15.8%	28%	
O=C1NCN(c2ccccc2)C12CCN(CCCOc1ccc(F)cc1)CC2	-6.4%	2.26%	-5.23%	13.1%	-4.77%	6.25%	-1.54%	4.86%	13.9%	-9.19%	
CCCN(CCC)CCc1cccc2c1CC(=O)N2	-9.36%	1.01%	10.1%	-5.12%	-5.66%	2.3%	7.51%	-4.67%	8.55%	-1.21%	
O=C(c1cc(C2CC2)on1)N(C1CCCCC1)C1CCCCC1	-1.05%	-3.92%	24.8%	-5.04%	0.0968%	8.05%	0.306%	10.5%	14.9%	42.7%	
CCCCCC(O)/C=C/[C@H]1C(=O)CC(O)C1C/C=C\CCCC(=O)O (stereo not given in full)	-3.89%		12.9%	-9.9%	8.62%	33.6%	5.49%	12.9%	32%	15.9%	41.2%
COC(=O)c1cc2c(cn1)[nH]c1ccccc12	-4.88%	22.6%	41.5%	2.02%	0.163%	8.08%	5.05%	2.22%	11%	11.4%	
O=C(COc1cccc2ccccc12)Nc1cc(Cl)ccc1C(=O)O	2.63%	5.25%	64.4%	8.57%	24.8%	33.2%	6.38%	12.9%	37.7%	16.5%	
CSc1ccc(C(=O)/C=C/c2cc(C)c(OC(C)(C)C(=O)O)c(C)c2)cc1	-1.57%	2.06%	16.2%	7.83%	18.2%	77.3%	0.467%	2%	99.6%	-8.02%	
COc1cc(Nc2ccc([N+](=O)[O-])cc2C(=O)O)cc2ccccc12	10.9%	5.25%	91.9%	23.2%	33.4%	71%	3.71%	11.3%	67.3%	44%	
CCCCCN1C(=O)C2(COc3cc4c(cc32)OCO4)c2ccccc21 (stereo not given)	-5.87%	0.924%	13.2%	-6.34%	1.71%	29%	0.00926%	18.7%	18.1%	32.6%	
O=[N+]([O-])c1ccc2nc(COCc3nc4ccc([N+](=O)[O-])cc4[nH]3)[nH]c2c1	0.834%	2.2%	6.46%	4.96%	7%	19.9%	12.5%	0.568%	27.1%	18.4%	
COc1cc(Nc2ccnc3ccc(Br)cc23)cc(OC)c1OC	12.8%	1.58%	35%	26.8%	14.7%	11.8%	10%	0.785%	50.8%	34.4%	
CCc1cc2c(cc1CC)CC(NC[C@H](O)c1ccc(O)c3[nH]c(=O)ccc13)C2	-8.46%	-2.48%	21.3%	-5.22%	4.23%	15.2%	0.834%	12.9%	16.1%	1.41%	
COc1ccc2cc(S(=O)(=O)N[C@H](CC(=O)N[C@H](Cc3ccc(CN4[C@H](C)CCC[C@@H]4C)cc3)C(=O)N(C)C(C)C)c3ccc4c(c3)OCO4)ccc2c1	3.72%	10.8%	-1.26%	-5.31%	-6.96%	19.6%	12.6%	7.79%	44.9%	30%	
C[C@@H](CN1CCC(Cc2ccccc2)CC1)[C@@H](O)c1ccc(O)cc1	-6.48%	2.2%	-7.47%	4.28%	-8.67%	-0.918%	3.42%	12.9%	-7.39%	-5.23%	
N[C@](CC1c2ccccc2Oc2ccccc21)(C(=O)O)[C@H]1C[C@@H]1C(=O)O	-3.16%	0.414%	12.3%	-0.127%	-5.15%	16.1%	0.898%	8.82%	24.2%	10.3%	
Cc1cccc(NC(=O)CN2CCC(c3ccccn3)CC2)c1	-6.98%	-0.35%	18.5%	0.438%	0.0304%	8.44%	-1.77%	12.1%	12.4%	7.82%	
NCC(O)c1ccc(O)cc1 (stereo not given)	0.665%	2.96%	17.4%	16%	-0.921%	41.7%	3.71%	2.22%	14.3%	13.2%	
N[C@@H](CCP(=O)(O)O)C(=O)O	-0.352%	-3.15%	-5.97%	-0.24%	-5.28%	13%	7.42%	12.1%	17.7%	-0.846%	
